Holding throughout (test): inhibition of tumour cell growth, NCI panel, 48 h
In assay [1] the test system is EKVX NSCLC.
The test system of assay [2] is HCT-15 colon.
The subject of assay [3] is KM12 colon.
Assay [4] has as its system NCI-H522 lung.
In assay [5] the test system is OVCAR-5 ovarian.
In assay [6] the test system is SF-268 CNS.
For assay [7], the system named is SF-539 CNS.
Assay [8] has as its system SNB-19 CNS.
The test system of assay [9] is UO-31 renal.
In assay [10] the test system is DU-145 prostate.
Assay [11] relates to PC-3 prostate.

Values joined by “and” are separate entries in the source; they are usually repeats but may differ in a detail not shown here. Equal entries are not always repeated.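 48-hour exposure; five concentrations; linearly interpolated endpoints. GI50 marks 50% less growth. TGI marks complete inhibition of growth.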 Some results are limits rather than exact numbers.

For `Cc1cc(C)nc(NS(=O)(=O)c2ccc(NC(=O)c3cccc4c(N)c5ccccc5nc34)cc2)n1`, the TGI in assay [1], in assay [2], in assay [3], in [4], in assay [5] and in assay [6] was above 100 µM throughout. Besides, the TGI in assay [7], in assay [8] and in assay [9] was above 100 µM in each case.

In the case of `C=CCC1C2CCC(O[Si](C(C)C)(C(C)C)C(C)C)(C(C(=O)OC)C2)C1O` (stereo not given), the TGI in [10], in assay [1], in assay [2], in assay [3], in [5] and in assay [11] was above 100 µM each time. In addition, the TGI in assay [6], in [7], in assay [8] and in assay [9] was above 100 µM each time.

With `Cc1[nH]c2ccccc2c1C1=CC(=O)N(c2ccccc2)C1=O`, the TGI was 52.5 µM in assay [10]; 83.9 µM in [1]; 34.5 µM in assay [2]; above 100 µM in assay [5]; above 100 µM in assay [11]; above 100 µM in assay [6]. Further, the TGI in assay [7] is 27.1 µM; in assay [8], above 100 µM; in [9] it was above 100 µM.

For the molecule `O=[N+]([O-])c1ccc2[nH]c(O)c(N=NC(=S)Nc3ccccc3)c2c1`, the TGI in assay [10] is 67.3 µM; in assay [1] it was 9.2 µM; in [2], 17 µM; in [3], 27 µM; in [5], 24.7 µM; in [11], 20.7 µM. The TGI is 27.6 µM in assay [7], 27.6 µM in [8] and 22 µM in [9].

Regarding `Nc1nc(NCCOCP(=O)(O)O)c(N)c(=O)[nH]1`, the TGI in [10], in assay [1], in assay [2], in [3], in assay [5] and in [11] was above 100 µM in each case. The TGI in [6], in [7], in [8] and in [9] was above 100 µM throughout.

Consider `CC1(C)N=C(Oc2ccccc2)n2nccc2N1`, for which the TGI in assay [1], in assay [2], in assay [3], in [4], in [5] and in assay [6] was above 100 µM each time. Moreover, the TGI in assay [7], in assay [8] and in assay [9] was above 100 µM throughout.

With `Cc1ccc(F)c2c(=O)cc(-c3ccccc3)[nH]c12`, the TGI in [2], in [3], in assay [4], in [5], in assay [6] and in assay [7] was above 100 µM throughout. For the same molecule, in [9], the TGI was above 100 µM.

`CC#Cc1c(C#CC)c(OC)c2c(c1OC)C(=O)c1ccccc1C2=O`: the TGI in assay [1] was above 100 µM; in [2], above 100 µM; in [3] it was above 100 µM; in assay [4], 42.5 µM; in [5], above 100 µM; in assay [6], 78.6 µM. In addition, the TGI in assay [8] was 71.4 µM; in assay [9], above 100 µM.

Take `CCOC(=O)NC(=S)NC(C)c1ccccc1` (stereo not given): the TGI in assay [10], in [1], in assay [2], in assay [3], in [4] and in assay [5] was above 100 µM in each case. For the same molecule, the TGI in assay [11], in assay [6], in assay [8] and in assay [9] was above 100 µM throughout.

With `CC(Nc1n[nH]c(=O)c2c1nnn2Cc1ccccc1)c1ccccc1` (stereo not given), the TGI in assay [10], in [1], in assay [2], in [3], in assay [5] and in [11] was above 100 µM throughout. Also, the TGI in assay [8] was > 100 µM and 66.2 µM; in assay [9] it was above 100 µM. Moreover, the GI50 is > 100 µM and 20.8 µM in assay [11]; > 100 µM and 21.7 µM in assay [8]; > 100 µM and 23.1 µM in assay [9].

Take `COc1ccccc1Cn1[nH]c(=O)c2cc([N+](=O)[O-])ccc21`: the TGI in assay [10], in [1], in [2], in assay [3], in assay [4] and in [5] was above 100 µM throughout. For the same molecule, the TGI in [6], in assay [7], in assay [8] and in [9] was above 100 µM throughout.

Consider `CC[C@H](C)[C@H]1NC(=O)[C@@H](NC(=O)[C@@H](CC(C)C)N(C)C(=O)C2CCCN2C(=O)[C@H](C)O)[C@@H](C)OC(=O)[C@H](Cc2ccccc2)N(C)C(=O)[C@@H]2CCCN2C(=O)[C@H](CC(C)C)NC(=O)[C@@H](C)C(=O)[C@H](C(C)C)OC(=O)C[C@@H]1O` (stereo not given in full), for which the TGI was 0.524 µM in [1]; 0.556 µM in assay [2]; below 0.00625 µM in assay [3]; below 0.00625 µM in assay [4]; 0.075 µM in [5]; 0.119 µM in [11]. Further, the TGI in assay [6] is 0.00762 µM; in assay [8] it was below 0.00625 µM; in assay [9] it was below 0.00625 µM.

On to `Cc1cc(-c2ccc(C(=O)C(c3ccccc3)(c3ccccc3)c3ccccc3)[nH]2)on1`, for which the TGI in [10] was 50.3 µM; in [1] it was 39.9 µM; in assay [2], 41.6 µM; in [3], 47.5 µM; in assay [5] it was above 100 µM; in [11], 49.1 µM. Further, the TGI in assay [6] is 68.7 µM; in assay [7], above 100 µM; in assay [8], 58.4 µM; in assay [9] it was 30.2 µM.

Take `CCCOP(=S)(N1CC1)N1CC1`: the TGI in assay [1], in assay [2], in assay [3], in assay [4], in [5] and in assay [6] was above 100 µM in each case. The TGI in assay [7], in [8] and in assay [9] was above 100 µM each time.

(Values after PubChem BioAssay (NCI).)
